According to patent publication US20250222116A1, “PARP-1 DEGRADATION AGENT AND USE THEREOF” (XIZANG HAISCO PHARMACEUTICAL CO., LTD., priority 2021, published 2025):
Read-outs that look alike come from different tables or passages of the source.

System: breast tumor cells MDA-MB-436
Assay: MDA-MB-436 cell activity test (CellTiter-Glo, 7 days)
Type: cell-based, human
Conditions: for IC50: 7 days incubation, read-out: IC50 (nM), MDA-MB-436 cell inhibitory activity; for inhibition at 10 µM: MDA-MB-436, MDA-MB-436 cells, read-out: Max inh. % 10 μM
Description: Breast tumor cells MDA-MB-436 were purchased from ATCC, the culture medium was Leibovitz's L-15+10% FBS, and the cells were cultured in a CO2-free incubator at 37° C. On day 1, the cells in the exponential growth phase were collected, and the cell suspension was adjusted to 4000 cells/135 μL with the culture medium. 135 μL of the cell suspension was added to each well of a 96-well cell culture plate and incubated overnight. On day 2, compounds at different concentrations were added, and the plate was placed in the incubator and incubated for 7 days. After the culture was completed, according to operation instructions for a CellTiter-Glo kit (Promega, G7573), 75 μL of CTG solution, which was already pre-melted and equilibrated to room temperature, was added to each well, and the mixture was uniformly mixed for 2 minutes using a microplate shaker. The plate was placed at room temperature for 10 minutes, and then […] signal values were determined using an Envision2104 plate reader (PerkinElmer). The inhibition rate was calculated using formula (1), where RLUcompound was the readout of the drug treated group, RLUcontrol was the average value of the solvent control group, and RLUblank was the average value of the cell-free well. The IC50 value was calculated using GraphPad Prism software.

[1] = Homo sapiens, MDA-MB-436, 168 h, MDA-MB-436 cells

IC50 [1] [nM] | SMILES | inhibition at 10 µM (Homo sapiens, 10 μM) [%] | Max inh. % 10 μM (MDA-MB-436 cells, 10 μM) [%] | IC50 (MDA-MB-436 cells) [nM]
15 | CCc1cc2ncc(CN3CCN(c4ccc(C(=O)NC5CN(c6cccc7c6C(=O)N(C6CCC(=O)NC6=O)C7=O)C5)nc4)CC3)cc2[nH]c1=O (stereo not drawn) [Compound 16, N-(1-(2-(2,6-dioxopiperidin-3-yl)-1,3-dioxoisoindolin-4-yl)azetidin-3-yl)-5-(4-((7-ethyl-6-oxo-5,6-dihydro-1,5-naphthyridin-3-yl)methyl)piperazin-1-yl)picolinamide] | 78.8 |  | 
61 | CCc1cc2ncc(CN3CCN(c4ccc(C(=O)NC5CN(c6cc7c(cc6F)C(=O)N(C6CCC(=O)NC6=O)C7=O)C5)nc4)CC3)cc2[nH]c1=O (stereo not drawn) [Compound 17, N-(1-(2-(2,6-dioxopiperidin-3-yl)-6-fluoro-1,3-dioxoisoindolin-5-yl)azetidin-3-yl)-5-(4-((7-ethyl-6-oxo-5,6-dihydro-1,5-naphthyridin-3-yl)methyl)piperazin-1-yl)picolinamide] | 99 |  | 
21 | CCc1cc2ncc(CN3CCN(c4ccc(C(=O)NC5CCN(c6cccc7c6C(=O)N(C6CCC(=O)NC6=O)C7=O)CC5)nc4)CC3)cc2[nH]c1=O (stereo not drawn) [Compound 19, N-(1-(2-(2,6-dioxopiperidin-3-yl)-1,3-dioxoisoindolin-4-yl)piperidin-4-yl)-5-(4-((7-ethyl-6-oxo-5,6-dihydro-1,5-naphthyridin-3-yl)methyl)piperazin-1-yl)picolinamide] | 90.3 |  | 
25 | CCc1cc2ncc(CN3CCN(c4ccc(C(=O)N[C@H]5CCN(c6ccc7c(c6)C(=O)N(C6CCC(=O)NC6=O)C7=O)C5)nc4)CC3)cc2[nH]c1=O (stereo partly drawn) [Compound 21, N-((3S)-1-(2-(2,6-dioxopiperidin-3-yl)-1,3-dioxoisoindolin-5-yl)pyrrolidin-3-yl)-5-(4-((7-ethyl-6-oxo-5,6-dihydro-1,5-naphthyridin-3-yl)methyl)piperazin-1-yl)picolinamide] | 88.9 |  | 
15 | CCc1cc2ncc(CN3CCN(c4ccc(C(=O)N[C@H]5CC[C@@H](Nc6ccc7c(c6)C(=O)N(C6CCC(=O)NC6=O)C7=O)CC5)nc4)CC3)cc2[nH]c1=O (stereo partly drawn) [Compound 27, N-((1s,4s)-4-((2-(-2,6-dioxopiperidin-3-yl)-1,3-dioxoisoindolin-5-yl)amino)cyclohexyl)-5-(4-((7-ethyl-6-oxo-5,6-dihydro-1,5-naphthyridin-3-yl)methyl)piperazin-1-yl)picolinamide] | 95.8 |  | 
23 | CCc1cc2ncc(CN3CCN(c4ccc(C(=O)N[C@H]5C[C@@H](Nc6ccc7c(c6)C(=O)N(C6CCC(=O)NC6=O)C7=O)C5)nc4)CC3)cc2[nH]c1=O (stereo partly drawn) [Compound 37, N-((1s,3s)-3-((2-(2,6-dioxopiperidin-3-yl)-1,3-dioxoisoindolin-5-yl)amino)cyclobutyl)-5-(4-((7-ethyl-6-oxo-5,6-dihydro-1,5-naphthyridin-3-yl)methyl)piperazin-1-yl)picolinamide] | 92.1 |  | 
12 | CCc1cc2ncc(CN3CCN(c4ccc(C(=O)N[C@H]5C[C@H](Nc6ccc7c(c6)C(=O)N(C6CCC(=O)NC6=O)C7=O)C5)nc4)CC3)cc2[nH]c1=O (stereo partly drawn) [Compound 38, N-((1r,3r)-3-((2-(2,6-dioxopiperidin-3-yl)-1,3-dioxoisoindolin-5-yl)amino)cyclobutyl)-5-(4-((7-ethyl-6-oxo-5,6-dihydro-1,5-naphthyridin-3-yl)methyl)piperazin-1-yl)picolinamide] | 77.1 |  | 
11 | CCc1cc2ncc(CN3CCN(c4ccc(C(=O)N[C@H]5C[C@@H](Nc6cc7c(cc6F)C(=O)N(C6CCC(=O)NC6=O)C7=O)C5)nc4)CC3)cc2[nH]c1=O (stereo partly drawn) [Compound 41, N-((1s,3s)-3-((2-(2,6-dioxopiperidin-3-yl)-6-fluoro-1,3-dioxoisoindolin-5-yl)amino)cyclobutyl)-5-(4-((7-ethyl-6-oxo-5,6-dihydro-1,5-naphthyridin-3-yl)methyl)piperazin-1-yl)picolinamide] | 85.7 |  | 
28 | CCc1cc2ncc(CN3CCN(c4ccc(C(=O)NC5CCN(c6ccc7c(c6)C(=O)N(C6CCC(=O)NC6=O)C7)CC5)nc4)CC3)cc2[nH]c1=O (stereo not drawn) [Compound 48, N-(1-(2-(2,6-dioxopiperidin-3-yl)-3-oxoisoindolin-5-yl)piperidin-4-yl)-5-(4-((7-ethyl-6-oxo-5,6-dihydro-1,5-naphthyridin-3-yl)methyl)piperazin-1-yl)picolinamide] | 94.6 |  | 

Continued, compound first:

SMILES | IC50 [1] [nM] | inhibition at 10 µM (Homo sapiens, 10 μM) [%] | Max inh. % 10 μM (MDA-MB-436 cells, 10 μM) [%] | IC50 (MDA-MB-436 cells) [nM]
CCc1cc2ncc(CN3CCN(c4ccc(C(=O)NC5CCN(CC6CCN(Cc7ccc(-n8c(O)nnc8-c8cc(C(C)C)c(O)cc8O)cc7)CC6)CC5)nc4)CC3)cc2[nH]c1=O [Compound 8, N-(1-((1-(4-(3-(2,4-dihydroxy-5-isopropylphenyl)-5-hydroxy-4H-1,2,4-triazol-4-yl)benzyl)piperidin-4-yl)methyl)piperidin-4-yl)-5-(4-((7-ethyl-6-oxo-5,6-dihydro-1,5-naphthyridin-3-yl)methyl)piperazin-1-yl)picolinamide] | 15 | 99.8 |  | 
CCc1cc2ncc(CN3CCN(c4ccc(C(=O)NC5CN(c6ccc7c(c6)C(=O)N(C6CCC(=O)NC6=O)C7=O)C5)nc4)CC3)cc2[nH]c1=O (stereo not drawn) [Compound 11, N-(1-(2-(2,6-dioxopiperidin-3-yl)-1,3-dioxoisoindolin-5-yl)azetidin-3-yl)-5-(4-((7-ethyl-6-oxo-5,6-dihydro-1,5-naphthyridin-3-yl)methyl)piperazin-1-yl)picolinamide] | 2 | 99.8 |  | 
CCc1cc2ncc(CN3CCN(c4ccc(C(=O)NC5CCN(C(=O)CC67CC8C[C@H](C6)C[C@H](C8)C7)CC5)nc4)CC3)cc2[nH]c1=O [Compound 12, N-(1-(2-((3R,5R)-adamantan-1-yl)acetyl)piperidin-4-yl)-5-(4-((7-ethyl-6-oxo-5,6-dihydro-1,5-naphthyridin-3-yl)methyl)piperazin-1-yl)picolinamide] | 44 | 89.6 |  | 
CCc1cc2ncc(CN3CCN(c4ccc(C(=O)NC5CN(C(=O)CC67CC8C[C@H](C6)C[C@H](C8)C7)C5)nc4)CC3)cc2[nH]c1=O [Compound 13, N-(1-(2-((3R,5R)-adamantan-1-yl)acetyl)azetidin-3-yl)-5-(4-((7-ethyl-6-oxo-5,6-dihydro-1,5-naphthyridin-3-yl)methyl)piperazin-1-yl)picolinamide] | 5 | 89.7 |  | 
CCc1cc2ncc(CN3CCN(c4ccc(C(=O)NC5CCN(C6CN(c7cccc8c7C(=O)N(C7CCC(=O)NC7=O)C8=O)C6)CC5)nc4)CC3)cc2[nH]c1=O (stereo not drawn) [Compound 15, N-(1-(1-(2-(2,6-dioxopiperidin-3-yl)-1,3-dioxoisoindolin-4-yl)azetidin-3-yl)piperidin-4-yl)-5-(4-((7-ethyl-6-oxo-5,6-dihydro-1,5-naphthyridin-3-yl)methyl)piperazin-1-yl)picolinamide] | 25 | 87.2 |  | 
CCc1cc2ncc(CN3CCN(c4ccc(C(=O)NC5CC(Nc6ccc7c(c6)C(=O)N([C@@H]6CCC(=O)NC6=O)C7=O)C5)nc4)CC3)cc2[nH]c1=O (stereo partly drawn) [Compound 42, N-((1r, 3r)-3-((2-(2,6-dioxopiperidin-3-yl)-1,3-dioxoisoindolin-5-yl)amino)cyclobutyl)-5-(4-((7-ethyl-6-oxo-5,6-dihydro-1,5-naphthyridin-3-yl)methyl)piperazin-1-yl)picolinamide] |  |  | 86.3 | 17
